Here are results for one compound from patent US20080200531A1, “CDKI pathway inhibitors as inhibitors of tumor cell growth” (priority 2006, published 2008).

For series [1], the system named is CDKI-responsive endogenous genes induced by p16. Description: Q-PCR of CDKI-responsive endogenous genes, HT1080 cells with IPTG-inducible p16. As to conditions: 10 μM SNX9; normalized to β-actin. Type of series: cell-based, human. Here is the method: For this purpose, we developed real-time RT-PCR (Q-PCR) assays for measuring RNA levels of eleven CDKI-responsive genes. This assay uses a 96-well TurboCapture RNA extraction kit (Qiagen), in which oligo(dT) is covalently bound to the surface of the wells to allow mRNA isolation from cell lysate and cDNA synthesis in the same wells. 5 units/μl of SuperScript III reverse transcriptase (Invitrogen) was added to the wells for 1 hr for cDNA synthesis at 50° C., and 2 μl of the resulting cDNA was then used for Q-PCR analysis using SYBR Green PCR Master Mix (ABI) with ABI 7900HT Q-PCR machine.
This effect argues that the molecular target of these compounds is not a specific CDKI but rather a common downstream mediator of the transcription-inducing effects of different CDKI.

Series [2] is described as follows: Plasma level of SNX9 one hour after IV injection, HPLC analysis. It is filed as in vivo. As to conditions: NCr nude, mouse, one hour after IV injection of 70 mg/kg, two mice. Here is the method:
In order to determine the ability of SNX9 to remain in the blood of mice at detectable levels, we analyzed its plasma level one hour after IV injection. Two control mice were uninjected, and two mice were injected IV with 70 mg/kg SNX9 (dissolved in PBS). After one hour, the mice were euthanized and the blood collected by cardiac puncture. After plasma was prepared from the whole blood it was frozen and stored at −70° C. The frozen plasma was thawed and 100 μl was cleared of plasma protein by precipitation with 4 volumes of 100% ethanol at −20° C. for one hour. Under these conditions, SNX9 is recovered quantitatively in the ethanol soluble fraction with a minimum of plasma contamination.
The first assay was HPLC analysis. For this assay, the ethanol soluble fraction was dried under vacuum and re-dissolved in 100 μl 30% acetonitrile 0.1% trifluoroacetic acid (TFA). 4 μl of the ethanol extracted SNX9 was applied to a C18 HPLC column and eluted isocratically using a buffer of 30% acetonitrile 0.1% TFA at a flow rate of 0.3 ml/min. The elution of SNX9 was monitored at its absorption maximum wavelength of 280 nm. […]
The second assay was a biological test for cytotoxicity. […] After 72 hours the growth inhibition was measured by Hoechst staining of the cell lysate in each well of the 96 well tissue culture plate, prepared as previously described.

Series [3] concerns HT1080 p21-9 cells. Description: FACS analysis of DNA content and GF7 mitotic staining. Type of series: cell-based, human. From the text: The combination of p21 and SNX9-class compounds leads to both G1 and G2/M arrest, at the levels expected for the combined effects of p21 and SNX9 (FIG. 6).
Series [4] deals with HMEC primary cultures, MCF-7 and MDA231. Description: 3-day growth inhibition assay (Hoechst 33342), normal mammary epithelial cells vs breast carcinoma lines. As to conditions: 3-day assay; HMEC vs MCF-7 and MDA231.
Experimental: (§1) The assays were carried out in 96-well plates, in triplicates; the plated cell numbers for each cell line were determined in preliminary experiments to assure exponential growth over the 3-day period of the assay. The cell numbers were measured by staining DNA of attached cells with Hoechst 33342, and the results for each dose were expressed as the decrease in cell number relative to untreated cells. For some of the tumor/normal cell line combinations, the assays were repeated using CellTiter-Glo viability assay (Promega), with the same results.
Series [5] has as its system normal fibroblasts (WI-38, BJ-EN). Description: 3-day growth inhibition assay (Hoechst 33342), normal cells. Type of series: cell-based, human. As to conditions: 5 μM; 3 days.
Experimental: as §1

`Cc1[nH]c2c(Cl)cccc2c1CCN` [SNX9]: the “induction of CDKI-responsive endogenous genes by p16 (ratio of RNA levels with and without IPTG)” value in series [1] was “partially inhibit the induction of all the tested genes”. Also, in series [2], the concentration at 1 h was approximately 250 µM. In series [3] (SNX9-treated cells), the “mitotic fraction (GF7 antibody staining)” value is given as “increase in the mitotic fraction”. Also, the “G2/M fraction (FACS analysis of DNA content)” value in series [3] (SNX9 alone) was “pronounced increase in the G2/M fraction”. For the same compound, in series [4], the “tumor selectivity of growth inhibition, normal vs transformed mammary cells” value was “clear tumor selectivity”. The “growth inhibition of normal cells” value in series [5] is given as “no effect on normal cells”.
